Experiments:
[1] = tested on: joints (arthritis); settings: dog, in vivo
[2] = in vivo; cited from earlier work
[3] = tested on: quadriceps (knee extensor musculature); design: species or system New Zealand White rabbits; settings: rabbit, in vivo
[4] = tested on: quadriceps muscle; design: species or system New Zealand White rabbits; settings: rabbit, in vivo
[5] = in vivo; cited from earlier work; remark: listed apart in the source
[6] = tested on: skeletal muscle; settings: in vivo; cited from earlier work

NCC1(CC(=O)O)CCCCC1 [gabapentin, reference compound]
adverse effect of the seizure treatment [1]: severe ataxia

CC(C)(O)CC(=O)O [HMB, β-hydroxy-β-methylbutyric acid]
side effects [2]: no side effects
botox-induced loss of strength in the contralateral musculature [3]: prevented much of the botox-induced loss of strength
contralateral muscle weights as a percentage of body weight versus botox (p<0.10) and control (p<0.03) groups [4]: larger contralateral musculature
muscle hypertrophy in the contralateral leg [4]: greatly increased
loss of HMB to urine [5]: 20-50%
ataxia, owner-observed, after resuming the HMB regimen [1]: significant improvement
joint stability and movement, owner-observed outcome [1]: increased joint stability, decreased joint instability, improved balanced movement and stability of skeletal joints
mobility after resuming the HMB regimen during anti-seizure medication [1]: began standing up without assistance, and was able to climb stairs without significant assistance

CCC1(c2ccccc2)C(=O)NC(=O)NC1=O [phenobarbital, reference compound]
adverse effect of the seizure treatment [1]: severe ataxia

[Br-].[K+] [potassium bromide, reference compound]
adverse effect of the seizure treatment [1]: severe ataxia

CC(C)(O)CC(=O)O [HMB-FA]
decrease in protein breakdown [6]: −56%
increase in skeletal muscle protein synthesis [6]: +70%
plasma levels of HMB compared with calcium HMB [5]: approximately double
time to plasma level compared with calcium HMB [5]: about one-quarter the time

Reference: US20210077439A1 (priority 2016, published 2021)
